In brackets after ≈: the same amount, converted by molar mass. Counter-ions that a name gives are not always drawn. Like-named read-outs stand apart in the source and are kept apart here.
Legend:
[1] = test system: Nippostrongylus brasiliensis; assay: Test 1: activity against roundworms in rats, treatment 6 days after infection (patent infection), worm counts 48 hours after treatment; type: in vivo
Method: Test 1 - Rats were infected with 100 Nippostrongylus brasiliensis larvae each, by the subcutaneous route. After 6 days, when the infection was patent, the rats were randomised and alloted to groups of 10 animals each, ready for treatment. One group was used for each dose level of the test compound and, in each experiment, one group was left untreated as a control. All the rats were killed for post-mortem worm counts 48 hours after treatment. The activity, expressed in terms of the percentage reduction in mean worm load of the treated group compared with the untreated group, is shown in Table I.

[2] = test system: Nippostrongylus brasiliensis; assay: Test 2: activity against roundworms in rats, treatment 24 hours after infection, worm counts 6 days after dosing; type: in vivo
Method: Test 2 -- Rats were infected with 100 Nippostrongylus brasiliensis larvae each, by the subcutaneous route. After 24 hours the rats were randomised and allotted to groups of 5 animals each, ready for treatment. Doses of the test compound were then administered to each group by the oral, subcutaneous and intraperitoneal routes respectively, one group of 10 animals being left untreated as a control. All the rats were killed for post-mortem worm counts 6 days after dosing. The activities, expressed in terms of the percentage reductions in mean worm load of the treated groups or damage to the worms compared with the untreated control group, are given below in Table I.

[3] = test system: Nippostrongylus brasiliensis eggs; assay: In vitro activity against roundworms (egg hatching and larvae); type: cell-based; conditions: 96 h, tested at 100, 10, 1 and 0.1 μg/ml, inhibited or delayed hatching of eggs, or killed, retarded growth or reduced activity of larvae during 4 days, read-out: M.I.C. (minimum inhibitory concentration)
Method: Compounds of formula I were tested at concentrations of 100 μg/ml, 10 μg/ml, 1 μg/ml and 0.1 μg/ml in small glass containers. If the compound was not soluble in water, a volatile organic medium, e.g. acetone, chloroform, ethanol or methanol was used. An amount of material appropriate for each final concentration was measured and placed in duplicate test containers and if an organic solvent was used it was allowed to evaporate completely. Nippostrongylus brasiliensis eggs were recovered by saturated saline centrifugal flotation from the faeces of rats heavily infected with third stage larvae six days previously. They were washed several times in water and suspended in water in a suitable concentration. From 25-50 eggs were placed in each container and the final volume was made up by the addition of a very dilute aqueous suspension of mouse faeces which served as the growth medium. The minimum inhibitory concentrations of each compound (M.I.C.), shown in the following Table V was the minimum concentration in μg/ml total liquid volume at which it inhibited or delayed hatching of eggs, or at which it killed, retarded growth or reduced activity of larvae during the 4 days after beginning the test.

[4] = Nippostrongylus brasiliensis, po, 48 h, Test 1, 1000 mg/kg oral, read-out: Percentage reduction in N.brasiliensis load
[5] = Nippostrongylus brasiliensis, 144 h, rats, Test 2, 1000 mg/kg oral, read-out: Percentage reduction in N.brasiliensis load
[6] = Nippostrongylus brasiliensis, ip, 144 h, rats, Test 2, 250 mg/kg intraperitoneal, read-out: Percentage reduction in N.brasiliensis load
[7] = Nippostrongylus brasiliensis, sc, 144 h, rats, Test 2, 250 mg/kg subcutaneous, read-out: Percentage reduction in N.brasiliensis load

## CCOC(=O)NC(=S)Nc1ccccc1NC(=O)C(C)N(C)C (racemic) [1-ethoxycarbonyl-3[2-(1-dimethylaminoethylcarbonylamino)phenyl]thiourea]
[1]; [4]
  inhibition in vivo at 1000 mg/kg: 97%
[2]; [5]
  inhibition in vivo at 1000 mg/kg: 100%

## CCOCCOC(=O)NC(=S)Nc1ccccc1N [1-(2-ethoxyethoxycarbonyl)-3-(2-aminophenyl)thiourea]
[2]; [5]
  inhibition in vivo at 1000 mg/kg: 90%
[2]; rats, Test 2, 1000 mg/kg oral
  worm damage: worm damage

## CCCCOC(=O)NC(=S)Nc1ccccc1N [1-butoxycarbonyl-3-(2-aminophenyl)thiourea]
[3]
  MIC: 1 µg/mL (≈ 3.74 µM)

## CCOC(=O)NC(=S)Nc1ccc(NC(=O)OC(C)C)cc1NC(C)=O [1-ethoxycarbonyl-3-(2-acetamido-4-isopropoxycarbonylaminophenyl)thiourea]
[2]; [5]
  inhibition in vivo at 1000 mg/kg: 62%

## CCOC(=O)NC(=S)Nc1ccc(Cl)cc1N [1-ethoxycarbonyl-3-(2-amino-4-chlorophenyl)thiourea]
[3]
  MIC: 10 µg/mL (≈ 36.5 µM)

## CCCCc1ccc(NC(=S)NC(=O)OCC)c(N)c1 [1-ethoxycarbonyl-3-(2-amino-4-n-butylphenyl)-thiourea]
[3]
  MIC: 1 µg/mL (≈ 3.39 µM)

## CCCCN(CCCC)CC(=O)Nc1ccccc1NC(=S)NC(=O)OCC [1-ethoxycarbonyl-3-(2-di-n-butylaminoacetamidophenyl)thiourea hydrochloride]
[2]; [5]
  inhibition in vivo at 1000 mg/kg: 97%
[3]
  MIC: 0.1 µg/mL

## CCOC(=O)NC(=S)Nc1ccccc1NC(=O)CN(CC)CC [1-ethoxycarbonyl-3-(2-diethylaminoacetamidophenyl)thiourea hydrochloride]
[1]; [4]
  inhibition in vivo at 1000 mg/kg: 44%
[2]; [5]
  inhibition in vivo at 1000 mg/kg: 100%
[2]; [6]
  inhibition in vivo at 250 mg/kg: 99%
[2]; [7]
  inhibition in vivo at 250 mg/kg: 95%
[3]
  MIC: 0.1 µg/mL

## CCOC(=O)NC(=S)Nc1cc(NC(=O)OC(C)C)ccc1NC(=O)CN(C)C [1-ethoxycarbonyl-3-(2-dimethylaminoacetamido-5-isopropoxycarbonylaminophenyl)-thiourea hydrochloride]
[2]; [5]
  inhibition in vivo at 1000 mg/kg: 100%
[2]; [6]
  inhibition in vivo at 250 mg/kg: 50%
[2]; [7]
  inhibition in vivo at 250 mg/kg: 60%
[3]
  MIC: 100 µg/mL

## CCOC(=O)NC(=S)Nc1cc(NC(=O)OC)ccc1NC(=O)CN(C)C [1-ethoxycarbonyl-3-(2-dimethylaminoacetamido-5-methoxycarbonylaminophenyl)thiourea hydrochloride]
[2]; [5]
  inhibition in vivo at 1000 mg/kg: 100%

## CCOC(=O)NC(=S)Nc1ccccc1NC(=O)CN(C)C [1-ethoxycarbonyl-3-(2-dimethylaminoacetamidophenyl)thiourea hydrochloride]
[1]; [4]
  inhibition in vivo at 1000 mg/kg: 85%
[2]; [5]
  inhibition in vivo at 1000 mg/kg: 98%
[2]; Nippostrongylus brasiliensis, ip, 144 h, rats, Test 2, 125 mg/kg intraperitoneal, read-out: Percentage reduction in N.brasiliensis load
  inhibition in vivo at 125 mg/kg: 85%
[2]; Nippostrongylus brasiliensis, sc, 144 h, rats, Test 2, 100 mg/kg subcutaneous, read-out: Percentage reduction in N.brasiliensis load
  inhibition in vivo at 100 mg/kg: 76%
[3]
  MIC: 0.1 µg/mL

## CCOC(=O)NC(=S)Nc1ccccc1NC(=O)CN1CCOCC1 [1-ethoxycarbonyl-3-(2-morpholinoacetamidophenyl)thiourea hydrochloride]
[2]; [5]
  inhibition in vivo at 1000 mg/kg: 99%
[3]
  MIC: 0.1 µg/mL

## CCOC(=O)NC(=S)Nc1ccccc1NC(=O)CN1CCCCC1 [1-ethoxycarbonyl-3-(2-piperidinoacetamidophenyl)thiourea hydrochloride]
[1]; [4]
  inhibition in vivo at 1000 mg/kg: 85%
[2]; [5]
  inhibition in vivo at 1000 mg/kg: 98%
[3]
  MIC: 1 µg/mL

## CCOC(=O)NC(=S)Nc1ccccc1NC(=O)C[N+](C)(C)C [1-ethoxycarbonyl-3-(2-trimethylammoniumacetamidophenyl)thiourea iodide]
[2]; [5]
  inhibition in vivo at 1000 mg/kg: 60%
[2]; rats, Test 2, 1000 mg/kg oral
  worm damage: worm damage
[3]
  MIC: 0.1 µg/mL

## CCCCc1ccc(NC(=O)CN(C)C)c(NC(=S)NC(=O)OCC)c1 [1-ethoxycarbonyl-3-(5-n-butyl-2-dimethylaminoacetamidophenyl)thiourea hydrochloride]
[1]; [4]
  inhibition in vivo at 1000 mg/kg: 30%
[2]; [5]
  inhibition in vivo at 1000 mg/kg: 88%
[3]
  MIC: 0.1 µg/mL

## CCOC(=O)NC(=S)Nc1ccccc1NC(=O)CN1C[C@@H](C)O[C@@H](C)C1 [1-ethoxycarbonyl-3-[2-(2,6-cis-dimethylmorpholinoacetamido)phenyl]thioureahydrochloride]
[2]; [6]
  inhibition in vivo at 250 mg/kg: 93%
[2]; [7]
  inhibition in vivo at 250 mg/kg: 95%
[3]
  MIC: 0.1 µg/mL

## CCOC(=O)NC(=S)Nc1ccccc1NC(=O)CN1CCN(C)CC1.Cl [1-ethoxycarbonyl-3-[2-(4-methylpiperazin-1-ylacetamido)phenyl]thiourea hydrochloride]
[1]; Test 1, 1000 mg/kg oral
  worm damage: worm damage
[2]; [5]
  inhibition in vivo at 1000 mg/kg: 100%
[2]; [6]
  inhibition in vivo at 250 mg/kg: 98%
[2]; [7]
  inhibition in vivo at 250 mg/kg: 93%
[3]
  MIC: 0.1 µg/mL

## CCOC(=O)NC(=S)Nc1ccccc1NC(=O)CN(C)Cc1ccccc1 [1-ethoxycarbonyl-3-[2-(N-benzyl-N-methylaminoacetamido)-phenyl]thiourea hydrochloride]
[1]; [4]
  inhibition in vivo at 1000 mg/kg: 50%
[1]; Test 1, 1000 mg/kg oral
  worm damage: worm damage
[2]; [5]
  inhibition in vivo at 1000 mg/kg: 99%
[2]; rats, Test 2, 1000 mg/kg oral
  worm damage: worm damage
[3]
  MIC: 0.1 µg/mL

## CCOC(=O)Nc1ccc(NC(=S)NC(=O)OC)c(N)c1 [1-methoxycarbonyl-3-(2-amino-4-ethoxycarbonylaminophenyl)thiourea]
[2]; [5]
  inhibition in vivo at 1000 mg/kg: 99%
[3]
  MIC: 10 µg/mL (≈ 32 µM)

## COC(=O)NC(=S)Nc1ccc(C)cc1N [1-methoxycarbonyl-3-(2-amino-4-methylphenyl)thiourea]
[2]; [5]
  inhibition in vivo at 1000 mg/kg: 97%
[2]; rats, Test 2, 1000 mg/kg oral
  worm damage: worm damage
[3]
  MIC: 100 µg/mL (≈ 418 µM)

## COC(=O)NC(=S)Nc1ccccc1N [1-methoxycarbonyl-3-(2-aminophenyl)thiourea hydrochloride]
[1]; [4]
  inhibition in vivo at 1000 mg/kg: 100%
[2]; [5]
  inhibition in vivo at 1000 mg/kg: 100%

## COC(=O)NC(=S)Nc1ccccc1N.O=[N+]([O-])O [1-methoxycarbonyl-3-(2-aminophenyl)thiourea nitrate]
[1]; Test 1, 1000 mg/kg oral
  Percentage reduction in N.brasiliensis load: 99%
[2]; Nippostrongylus brasiliensis, po, 144 h, read-out: Percentage reduction in N.brasiliensis load, rats, Test 2, 1000 mg/kg oral
  inhibition in vivo at 1000 mg/kg: 99%

## COC(=O)NC(=S)Nc1ccccc1N.Cc1ccc(S(=O)(=O)O)cc1 [1-methoxycarbonyl-3-(2-aminophenyl)thiourea toluene-p-sulphonate]
[1]; Test 1, 1000 mg/kg oral
  Percentage reduction in N.brasiliensis load: 98%
[2]; rats, Test 2, 1000 mg/kg oral
  Percentage reduction in N.brasiliensis load: 99%

## COC(=O)NC(=S)Nc1ccc(C(C)=O)cc1N [1-methoxycarbonyl-3-(4-acetyl-2-aminophenyl)thiourea]
[2]; [5]
  inhibition in vivo at 1000 mg/kg: 73%
[2]; rats, Test 2, 1000 mg/kg oral
  worm damage: worm damage

## CCCCc1ccc(NC(=S)NC(=O)OC)c(NC(=O)OCC)c1 [1-methoxycarbonyl-3-(4-n-butyl-2-ethoxycarbonylaminophenyl)thiourea]
[1]; Nippostrongylus brasiliensis, po, 48 h, Test 1, 500 mg/kg oral, read-out: Percentage reduction in N.brasiliensis load
  inhibition in vivo at 500 mg/kg: 40%
[1]; Test 1, 500 mg/kg oral
  worm damage: worm damage
[3]
  MIC: 0.1 µg/mL (≈ 0.283 µM)

## COC(=O)NC(=S)Nc1ccccc1NC(=O)C=CC(=O)O [1-methoxycarbonyl-3-[2-(3-carboxyacrylamido)phenyl]thiourea]
[2]; [5]
  inhibition in vivo at 1000 mg/kg: 99%
[3]
  MIC: 1 µg/mL (≈ 3.09 µM)

## COC(=O)NC(=S)Nc1ccccc1NC(=O)CCN(C)C.Cl [1-methoxycarbonyl-3-[2-(3-dimethylaminopropionamido)phenyl]thiourea hydrochloride]
[1]; [4]
  inhibition in vivo at 1000 mg/kg: 20%
[1]; Test 1, 1000 mg/kg oral
  worm damage: worm damage
[2]; [5]
  inhibition in vivo at 1000 mg/kg: 98%
[2]; rats, Test 2, 1000 mg/kg oral
  worm damage: worm damage
[3]
  MIC: 1 µg/mL

## C#CCOC(=O)NC(=S)Nc1ccccc1N [1-propargyloxycarbonyl-3-(2-aminophenyl)thiourea]
[1]; [4]
  inhibition in vivo at 1000 mg/kg: 76%
[1]; Test 1, 1000 mg/kg oral
  worm damage: worm damage
[2]; [5]
  inhibition in vivo at 1000 mg/kg: 100%
[3]
  MIC: 1 µg/mL (≈ 4.01 µM)

— patent US4005217A, “Treatment of helminth infections with substituted phenyl-thiourea derivatives” (May & Baker Limited, priority 1970, dated 1977)
